Experimental data from US20240260575A1, “AGRICULTURAL AND HORTICULTURAL FUNGICIDAL COMPOSITION” (Nippon Soda Co., Ltd., priority 2021, published 2024).

Assays:
[1] = system: gray mold pathogen (Botrytis cinerea); assay: Gray mold antimicrobial test (growth inhibition rate); type: cell-based; parameters: growth inhibition rate, component (II) alone: concentration or dose not given beside the values; details: for growth inhibition rate: Compound 3 (0.25 or 0.063 ppm) alone or mixed with component (II)
Description: (Test Example) Gray Mold Antimicrobial Test (Growth Inhibition Rate)
Conidiospores of a gray mold pathogen (Botrytis cinerea) were added to and dispersed in a yeast extract sucrose medium, and a component (I) and a component (II) dissolved in dimethyl sulfoxide at predetermined concentrations were further added and mixed thereto, and the resulting solution was dispensed onto a 96-well microplate and cultivated in the dark at 20° C. for 3 to 5 days. After the cultivation, the turbidity at a wavelength of 405 nm was measured by a microplate reader and compared with that in the untreated case to determine the growth inhibition rate (%) for the gray mold pathogen. The test was duplicately carried out. The results are shown in Tables 3 to 7 together with expected values calculated as follows.
Expected values were calculated by using Colby's equation: E=M+N−MN/100. Here, E denotes an expected value (%) of a growth inhibition rate, M denotes a growth inhibition rate (%) in using a component (I) alone, and N denotes a growth inhibition rate (%) in using a component (II) alone.
If the actually measured growth inhibition rate (%) of a composition of a component (I) and a component (II) is higher than the expected value, E, the composition of a component (I) and a component (II) is said to have exerted synergistic effect.

[2] = system: cucumber powdery mildew pathogen (Sphaerotheca fuliginea); assay: Cucumber powdery mildew control test; type: in vivo; parameters: scale not given here; details: for control value: Compound 3 0.4 ppm alone or mixed with component (II), sprayed onto cucumber seedlings
From the text: (Test Example) Cucumber Powdery Mildew Control Test 1) Preparation of Drug Solution for Test […] The other components (II) were each formulated into an aqueous solution or suspension having a predetermined concentration. 2) Test A mixed solution of a component (I) and a component (II) at a predetermined concentration was sprayed onto cucumber seedlings (variety: “Shimo-shirazu, creeping type”, cotyledon stage). After natural drying at room temperature, conidiospores of a cucumber powdery mildew pathogen (Sphaerotheca fuliginea) were inoculated by blushing off, and the seedlings were kept in a thermostatic room at 20° C. using a 12 hour light/dark cycle for 7 to 10 days. The states of lesion development on leaves were examined by comparing with that for the untreated case, and the control values were determined. The test was duplicately carried out. The results are shown in Tables 8 to 12 together with expected values calculated as follows. Expected values were calculated by using Colby's equation: […] Here, E denotes an expected value of a control value, M denotes a control value in using a component (I) alone, and N denotes a control value in using a component (II) alone. If the actually measured control value of a composition of a component (I) and a component (II) is higher than the expected value, E, the composition of a component (I) and a component (II) is said to have exerted synergistic effect.

[3] = Table 3, ppm: Ipflufenoquin 10, Cyflufenamid 10, Thiophamate-methyl 0.4, Iminoctadine acetate 0.08, Iminoctadine albesilate 0.08, Triflumizole 0.0032, Picarbutrazox 0.08, Prothioconazole 0.0032, Mefentrifluconazole 0.00064, Cymoxanil 10, Fludioxonil 0.016, Metyltetraprole 0.4, Florylpicoxamid 0.08, Fluxapyroxad 0.08, Fluopyram 0.4, Potassium phosphite 10, Fipronil 2, Chlorantraniliprole 0.016, Aba
[4] = Table 4, ppm: Ipflufenoquin 10, Cyflufenamid 2, Thiophamate-methyl 0.4, Iminoctadine acetate 0.08, Iminoctadine albesilate 0.4, Picarbutrazox 10, Prothioconazole 0.0032, Mefentrifluconazole 0.0006, Cymoxanil 10, Fludioxonil 0.016, Metyltetraprole 10, Fluxapyroxad 0.016, Fluopyram 0.4, Potassium phosphite 10, Fipronil 2, Chlorantraniliprole 0.016, Abamectin 0.016, Sulfoxaflor 10, Tebufenozide 0.016
[5] = Table 5, ppm: Ipflufenoquin 10, Cyflufenamid 10, Thiophamate-methyl 0.4, Iminoctadine albesilate 0.4, Picarbutrazox 0.0032, Mefentrifluconazole 0.0006, Cymoxanil 10, Captan 0.0032, Fludioxonil 0.016, Metyltetraprole 10, Florylpicoxamid 0.0001, Fluxapyroxad 0.016, Fluopyram 0.0032, Potassium phosphite 0.08, Fipronil 2, Chlorantraniliprole 0.016, Abamectin 0.4, Sulfoxaflor 0.4, Tebufenozide 10
[6] = Table 6, ppm: Ipflufenoquin 10, Cyflufenamid 0.08, Thiophamate-methyl 2, Triflumizole 0.08, Picarbutrazox 0.0016, Prothioconazole 0.0006, Mefentrifluconazole 0.08, Cymoxanil 0.08, Captan 0.08, Fludioxonil 0.016, Metyltetraprole 10, Florylpicoxamid 0.0006, Fluxapyroxad 0.0032, Fluopyram 0.016, Potassium phosphite 0.016, Fipronil 10, Chlorantraniliprole 0.08, Abamectin 2, Sulfoxaflor 0.08, Tebufenoz
[7] = Table 7, ppm: Ipflufenoquin 0.08, Cyflufenamid 0.08, Thiophamate-methyl 2, Iminoctadine acetate 0.0001, Iminoctadine albesilate 0.4, Triflumizole 0.4, Prothioconazole 0.0032, Mefentrifluconazole 0.08, Cymoxanil 0.08, Captan 0.08, Fludioxonil 0.08, Metyltetraprole 0.0032, Florylpicoxamid 0.0006, Fluxapyroxad 0.016, Fluopyram 0.0032, Potassium phosphite 0.016, Fipronil 2, Chlorantraniliprole 0.016
[8] = Table 8, ppm or dilution rate: Thiophanate-methyl 1.6, Triflumizole 25, Cyflufenamid 1.6, Iminoctadine acetate 0.25, Iminoctadine albesilate 1, Picarbutrazox 2000, Ipflufenoquin 1, Bacillus subtilis ×250, Pseudomonas rhodesiae ×2000, Sodium hydrogen carbonate 250, Potassium bicarbonate 250, Orange oil 4000, Linalool 4000, Thymol 100, Neem oil 2000, Prothioconazole 1.6, Mancozeb 63, Mineral oil 500
[9] = Table 9, ppm or dilution rate: Thiophanate-methyl 1.6, Triflumizole 25, Cyflufenamid 1.6, Iminoctadine acetate 0.25, Iminoctadine albesilate 1, Picarbutrazox 2000, Ipflufenoquin 1, Bacillus subtilis ×250, Pseudomonas rhodesiae ×2000, Sodium hydrogen carbonate 250, Potassium bicarbonate 250, Orange oil 1000, Linalool 4000, Thymol 100, Neem oil 2000, Prothioconazole 1.6, Mancozeb 63, Mineral oil 500
[10] = Table 10, ppm or dilution rate: Thiophanate-methyl 1.6, Triflumizole 25, Cyflufenamid 1.6, Iminoctadine acetate 0.25, Iminoctadine albesilate 1, Picarbutrazox 2000, Ipflufenoquin 1, Bacillus subtilis ×1000, Pseudomonas rhodesiae ×2000, Sodium hydrogen carbonate 250, Potassium bicarbonate 250, Orange oil 1000, Linalool 4000, Thymol 100, Neem oil 2000, Prothioconazole 1.6, Mancozeb 63, Mineral oil 5
[11] = Table 11, ppm or dilution rate: Thiophanate-methyl 1.6, Triflumizole 25, Cyflufenamid 1.6, Iminoctadine acetate 1, Iminoctadine albesilate 1, Picarbutrazox 2000, Ipflufenoquin 1, Bacillus subtilis ×1000, Pseudomonas rhodesiae ×2000, Sodium hydrogen carbonate 250, Potassium bicarbonate 250, Orange oil 1000, Linalool 4000, Thymol 100, Neem oil 2000, Prothioconazole 1.6, Mancozeb 63, Mineral oil 500
[12] = Table 12, ppm or dilution rate: Thiophanate-methyl 1.6, Triflumizole 25, Cyflufenamid 1.6, Iminoctadine acetate 0.25, Iminoctadine albesilate 1, Picarbutrazox 2000, Ipflufenoquin 1, Bacillus subtilis ×1000, Pseudomonas rhodesiae ×2000, Sodium hydrogen carbonate 1000, Potassium bicarbonate 250, Orange oil 1000, Linalool 4000, Thymol 400, Neem oil 2000, Prothioconazole 1.6, Mancozeb 63, Mineral oil

Compound: Potassium phosphite
- growth inhibition rate, component (II) alone [1, 3]: 0%
- growth inhibition rate, component (II) alone [1, 4]: 0%
- growth inhibition rate, component (II) alone [1, 5]: 0%
- growth inhibition rate, component (II) alone [1, 6]: 1%
- growth inhibition rate, component (II) alone [1, 7]: 12%

Compound: Cn1cc(C(=O)Nc2ccccc2-c2cc(F)c(F)c(F)c2)c(C(F)F)n1 [Fluxapyroxad]
- growth inhibition rate, component (II) alone [1, 3]: 8%
- growth inhibition rate, component (II) alone [1, 4]: 10%
- growth inhibition rate, component (II) alone [1, 5]: 10%
- growth inhibition rate, component (II) alone [1, 6]: 10%
- growth inhibition rate, component (II) alone [1, 7]: 11%

Compound: COc1ccc(F)cc1C(O)Cn1cc(/C(C)=N/OC(C)C)c(=O)n(C[C@H](C)NC(=O)C(C)C)c1=O (stereo partly drawn) [Compound 3, N-((2S)-1-(3-(2-(5-fluoro-2-methoxyphenyl)-2-hydroxyethyl)-5-((E)-1-(isopropoxyimino)ethyl)-2,6-dioxo-3,6-dihydropyrimidin-1(2H)-yl)propan-2-yl)isobutyramide]
- control value ([2]; Table 10, Examination 1): 72
- control value ([2]; Table 10, Examination 2): 68
- control value ([2]; Table 10, Examination 3): 56
- control value ([2]; Table 10, Examination 4): 61
- control value ([2]; Table 10, Examination 5): 34
- control value ([2]; Table 10, Examination 6): 67
- control value ([2]; Table 10, Examination 7): 67
- growth inhibition rate ([1]; Table 5, Examination 1): 74%
- growth inhibition rate ([1]; Table 5, Examination 2): 63%
- growth inhibition rate ([1]; Table 5, Examination 3): 48%
- growth inhibition rate ([1]; Table 5, Examination 4): 14%

Compound: O=C([O-])O.[Na+] [Sodium hydrogen carbonate]
- control value, component (II) alone [2, 8]: 33
- control value, component (II) alone [2, 9]: 33
- control value, component (II) alone [2, 10]: 33
- control value, component (II) alone [2, 11]: 33
- control value, component (II) alone [2, 12]: 33

Compound: Cc1cccc(-n2nnn(C)c2=O)c1COc1ccn(-c2ccc(Cl)cc2)n1 [Metyltetraprole]
- growth inhibition rate, component (II) alone [1, 3]: 0%
- growth inhibition rate, component (II) alone [1, 4]: 52%
- growth inhibition rate, component (II) alone [1, 5]: 33%
- growth inhibition rate, component (II) alone [1, 6]: 33%
- growth inhibition rate, component (II) alone [1, 7]: 0%

Compound: COc1ccnc(C(=O)N[C@@H](C)C(=O)O[C@@H](C)C(c2ccc(F)cc2)c2ccc(F)cc2)c1OC(C)=O [Florylpicoxamid]
- growth inhibition rate, component (II) alone [1, 3]: 13%
- growth inhibition rate, component (II) alone [1, 5]: 0%
- growth inhibition rate, component (II) alone [1, 6]: 8%
- growth inhibition rate, component (II) alone [1, 7]: 6%

Compound: CCCOC/C(=N\c1ccc(Cl)cc1C(F)(F)F)n1ccnc1 [Triflumizole]
- control value, component (II) alone [2, 8]: 27
- control value, component (II) alone [2, 9]: 27
- control value, component (II) alone [2, 10]: 27
- control value, component (II) alone [2, 11]: 27
- control value, component (II) alone [2, 12]: 27

Compound: COC(=O)NC(=S)Nc1ccccc1NC(=S)NC(=O)OC [Thiophanate-methyl]
- control value, component (II) alone [2, 8]: 83
- control value, component (II) alone [2, 9]: 83
- control value, component (II) alone [2, 10]: 0
- control value, component (II) alone [2, 11]: 67
- control value, component (II) alone [2, 12]: 17

Compound: CC(O)(Cn1cncn1)c1ccc(Oc2ccc(Cl)cc2)cc1C(F)(F)F (stereo not shown) [Mefentrifluconazole]
- growth inhibition rate, component (II) alone [1, 3]: 0%
- growth inhibition rate, component (II) alone [1, 4]: 0%
- growth inhibition rate, component (II) alone [1, 5]: 48%
- growth inhibition rate, component (II) alone [1, 6]: 37%
- growth inhibition rate, component (II) alone [1, 7]: 34%

Compound: O=C(Cc1ccccc1)N/C(=N\OCC1CC1)c1c(C(F)(F)F)ccc(F)c1F [Cyflufenamid]
- control value, component (II) alone [2, 8]: 50
- control value, component (II) alone [2, 9]: 50
- control value, component (II) alone [2, 10]: 50
- control value, component (II) alone [2, 11]: 50
- control value, component (II) alone [2, 12]: 50

Compound: C=CC(C)(O)CCC=C(C)C (stereo not shown) [Linalool]
- control value, component (II) alone [2, 8]: 27
- control value, component (II) alone [2, 9]: 27
- control value, component (II) alone [2, 10]: 17
- control value, component (II) alone [2, 11]: 17
- control value, component (II) alone [2, 12]: 27

Compound: Cc1ccc(C(C)C)c(O)c1 [Thymol]
- control value, component (II) alone [2, 8]: 17
- control value, component (II) alone [2, 9]: 17
- control value, component (II) alone [2, 10]: 17
- control value, component (II) alone [2, 11]: 17
- control value, component (II) alone [2, 12]: 50

Compound: Abamectin
- growth inhibition rate, component (II) alone [1, 3]: 0%
- growth inhibition rate, component (II) alone [1, 4]: 0%
- growth inhibition rate, component (II) alone [1, 5]: 64%
- growth inhibition rate, component (II) alone [1, 6]: 12%
- growth inhibition rate, component (II) alone [1, 7]: 0%

Compound: OC(Cc1ccccc1Cl)(Cn1nc[nH]c1=S)C1(Cl)CC1 (stereo not shown) [Prothioconazole]
- control value, component (II) alone [2, 8]: 50
- control value, component (II) alone [2, 9]: 0
- control value, component (II) alone [2, 10]: 17
- control value, component (II) alone [2, 11]: 0
- control value, component (II) alone [2, 12]: 0

Compound: O=C([O-])O.[K+] [Potassium bicarbonate]
- control value, component (II) alone [2, 8]: 64
- control value, component (II) alone [2, 9]: 64
- control value, component (II) alone [2, 10]: 17
- control value, component (II) alone [2, 11]: 64
- control value, component (II) alone [2, 12]: 64

Compound: Mancozeb
- control value, component (II) alone [2, 8]: 17
- control value, component (II) alone [2, 9]: 17
- control value, component (II) alone [2, 10]: 17
- control value, component (II) alone [2, 11]: 17
- control value, component (II) alone [2, 12]: 17
